Laboratory results as given in patent US8592466B2, “Methods for treating conditions caused by higher-than-normal dopaminergic activity in basal ganglia” (Neuropill, Inc., priority 2008, dated 2013).

How the values were obtained:
[1] = test system: serum prolactin; experiment: Serum prolactin radioimmunoassay; assay type: in vivo, humans
Method: Blood for prolactin level determinations were collected on day 0 at 6:00 A.M. before breakfast (7:00 A.M.) and also three times a day on days 15, 22 and 29 with first blood draw performed at 6:00 A.M. before the morning dose of RPR 102681 (6:05 A.M.) and the other two at 30 minutes after each i.v. infusion. Prolactin levels on days 15, 22, and 29 were compared between RPR 102681 and placebo cohorts to determine the extent to which prolactin levels are modified by the administration of RPR 102681 using repeated measures ANOVA. Changes in prolactin level induced by 40 mg cocaine infusion along with RPR 102681 (days 15, 22 and 29) were compared for each subject by RPR 102681 dose level using repeated measures ANOVA.
Prolactin concentrations were determined using a commercially available radioimmunoassay (Coat-A-Count® Prolactin IRMA, Diagnostic Products Corporation, Los Angeles, Calif.). Calibrator and QCs (CONE, lots #019 and 020) were also supplied by the manufacturer. Fifty microliters of calibrators, QCs and study samples were added to prolactin polyclonal antibody-coated tubes. This was followed by 200 μL of ^125I-labeled prolactin monoclonal antibodies, followed by shaking for 2 hours. The tubes were decanted and drained; 2 mLs of buffered wash solution was added for 1-2 minutes; the tubes were again decanted and drained; this was followed by a second wash step. After thorough draining, the radioactivity in the tubes was determined from 1 minute counts using a Packard Cobra II gamma counter (Downers Grove, Ill.). In theory, the ^125I-labeled prolactin monoclonal antibodies bind only to prolactin bound to the antibody coated onto the tubes. The radioactivity retained in the tube increases as does the amount of prolactin in the samples. The software for the gamma counter generates a standard curve based on the log of the concentration and the log of the B/Bo for the calibrators. This curve is used to back-calculate the concentration of prolactin in the samples. […]

[2] = test system: DA release in striatum; experiment: [11C]-raclopride PET binding potential; assay type: in vivo, humans
Method: The Positron Emission Tomography (PET) scans were performed at the PET Center of Johns Hopkins University at Johns Hopkins Hospital, Baltimore, Md. During the PET scans three plasma samples of RPR 102681 were obtained from each subject under different dosing to measure RPR 102681 plasma concentration.
Each subject was also studied using Magnetic Resonance Imaging (MRI). Each subject received an individual thermoplastic mask molded to their face to allow for repositioning and stabilizing of the head during the MRI procedure and PET scan later. Marks, which localized the anatomical structures of interest, were placed on the mask following the MRI scan. In particular, each subject received an MRI with a sagittal scout view to localize the anterior commissure-posterior commissure (AC-PC) line to allow standardized positioning across the subjects based on the anatomical landmarks. […]
[^11C]-raclopride PET scans were preformed on days 6, 13, 20 and 27. […] To measure the specific binding of tracer, binding potential (BP) images were generated by a simplified reference model with a linear regression algorithm (Using a reference tissue model with spatial constraint to quantify [^11C] Pittsburgh compound B PET for early diagnosis of Alzheimer's disease, Yun Zhou, Susan M. Resnick, Weiguo Ye, Hong Fan, Daniel P. Holt, William E. Klunk, Chester A. Mathis, Robert Dannals, and Dean F. Wonga, NeuroImage 36 (2007) 298-312). […]
Subjects received PET scans with [^11C]-raclopride at baseline after uneventful completion of screening cocaine infusions and assignment to RPR 102681 or placebo treatment and on the fifth day of each RPR 102681 dose level (days 13, 20 and 27). After six subjects had completed all four PET scans these subjects' PET scan data was analyzed without breaking the blind to determine whether or not the PET scans should have been administered to any additional subjects. […]

[3] = 12 healthy adult human subjects; most events, except for one subject; cited from earlier work
[4] = Cocaine and BE pharmacokinetics under RPR 102681 treatment; settings: post-treatment RPR 102681 doses vs baseline
[5] = Phase I cocaine interaction study: heart rate and blood pressure

CC(C(=O)O)c1cccc(NC(=O)NCC(=O)N2C(C(=O)OC(C)(C)C)CSC2c2ccccc2F)c1 [RPR 102681, (2S)-2-{3-[3-({[(2R,4R)-4-tert-Butoxycarbonyl-2-(2-fluorophenyl)]-3-thiazolidinyl}carbonylmethyl)ureido]phenyl}propionic acid]
post-cocaine prolactin value vs post-saline value ([1]; RPR 102681 group, day 29): significantly lower | serum prolactin levels, RPR 102681 vs placebo subjects ([1]; day 0 and pre-infusion days 15, 22, 29): no significant differences | serum prolactin response to cocaine or saline infusion, RPR 102681 vs placebo ([1]; infusion days 15, 22, 29): no significant difference | change in [11C]-raclopride binding potential (BP) ([2]; Dosing Schedule A, caudate nucleus, putamen or ventral striatum): no statistically significant change | change in [11C]-raclopride binding potential (BP) ([2]; Dosing Schedule B, dose 60-90 minutes prior to PET scan, caudate nucleus and ventral striatum, P<0.001): significantly increased BP | dopamine release inferred from raclopride binding potential ([2]; humans, PET brain imaging): inhibited dopamine release | severity of adverse events and treatment-associated adverse events [3]: mild or moderate | cocaine and BE pharmacokinetic parameters, difference from baseline [4]: No statistically significant differences | elevation of DBP after cocaine ([5]; RPR 800 mg, cocaine 20 mg i.v., P-value=0.093): reduces | elevation of HR after cocaine ([5]; RPR 800 mg, cocaine 40 mg i.v., P-value=0.009): reduces the elevation of HR | elevation of SBP after cocaine ([5]; RPR 102681 200 mg, cocaine 20 mg i.v., P-value=0.031): increased the elevation of SBP | SBP increase in response to cocaine vs placebo group ([5]; cocaine 20 mg, GEE model adjusted for baseline, P-value=0.0412): significantly greater SBP increase | maximum HR/SBP/DBP changes across RPR 102681 dose conditions ([5]; pair-wise comparisons within RPR 102681 group, in general): does not significantly change HR/SBP/DBP | HR/SBP/DBP, RPR 102681 vs placebo groups ([5]; prior to infusions, post saline or post cocaine infusions, any day): no statistical difference
